Measurements published in paper PMC13430218 (Clinical Cancer Research, 2026).

Experiment: Plasma pharmacokinetics of rogocekib, LC-MS/MS, noncompartmental
Format: in vivo, human
Description: For other patients in the expansion cohort, peripheral blood samples were collected before and after the dose at 2 and 6 hours on day 1 of cycle 1, and before dose of day 1 in cycles 2 and 4.
Descriptive statistics such as medians, standard deviations, and ranges were calculated. The Kaplan–Meier method was utilized for OS and PFS analysis. PK/PD parameters were assessed using a noncompartmental approach. Exploratory biomarkers were assessed through descriptive statistics.

Tmax, median (min, max) (Cohort A 10 mg twice weekly, n = 1, cycle 1 day 1, oral): 2 (2, 2) hours
AUC0–24 hours, geometric mean (%CV) (Cohort A 140 mg twice weekly, n = 6, cycle 1 day 1, oral): 5,823.618 (22.2) hours·ng/mL
Compound: COc1ncnn2ccc(-c3cnc4nc(C)n(Cc5nnc([C@@H](C)F)o5)c4c3)c12 [rogocekib, Rogocekib]
